Laboratory results: patent US20090215778A1, “Alpha-substituted Arylmethyl Piperazine Pyrazolo [1,5-alpha]Pyrimidine Amide Derivatives” (priority 2007, published 2009)

Experiments:
[1] = biological target: T1, HIV Env six-helix bundle (6HB) structure (Human immunodeficiency virus type 1 group M subtype B, UniProt P04579); assay: Six-helix bundle (6HB) assay; type: cell-based, HIV-1 (strain RF)
T1 construct: H9 cells chronically infected with HIV-1 (H9/HIV-1RF); endogenous in cells; host or cells: H9 cells chronically infected with HIV-1 strain RF (Env is made from the virus in the infected cells, not by transfection)
T1 sequence (P04579 32-519): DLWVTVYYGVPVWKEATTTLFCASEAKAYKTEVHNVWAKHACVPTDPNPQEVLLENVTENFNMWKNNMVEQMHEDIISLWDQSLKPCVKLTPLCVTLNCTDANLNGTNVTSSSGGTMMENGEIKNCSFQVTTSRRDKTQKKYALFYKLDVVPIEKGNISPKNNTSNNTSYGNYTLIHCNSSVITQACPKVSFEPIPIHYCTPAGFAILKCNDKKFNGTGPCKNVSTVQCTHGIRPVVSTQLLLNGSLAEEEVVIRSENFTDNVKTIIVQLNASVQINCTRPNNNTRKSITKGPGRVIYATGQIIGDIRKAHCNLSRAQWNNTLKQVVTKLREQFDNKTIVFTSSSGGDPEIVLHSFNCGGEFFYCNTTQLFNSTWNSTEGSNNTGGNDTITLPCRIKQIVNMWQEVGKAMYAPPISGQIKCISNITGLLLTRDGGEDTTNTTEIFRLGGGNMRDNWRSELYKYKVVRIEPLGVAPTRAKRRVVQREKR
T1 sequence (P04579 520-865): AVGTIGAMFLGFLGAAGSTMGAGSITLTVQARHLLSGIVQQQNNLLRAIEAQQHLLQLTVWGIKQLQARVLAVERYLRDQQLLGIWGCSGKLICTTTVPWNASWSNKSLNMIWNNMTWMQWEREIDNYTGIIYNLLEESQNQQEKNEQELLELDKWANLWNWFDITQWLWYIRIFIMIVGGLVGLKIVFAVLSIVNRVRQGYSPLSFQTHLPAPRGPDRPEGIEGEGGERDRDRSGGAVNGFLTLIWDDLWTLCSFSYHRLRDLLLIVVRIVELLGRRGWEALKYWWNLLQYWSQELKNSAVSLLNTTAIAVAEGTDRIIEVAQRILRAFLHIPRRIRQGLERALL
How it was run: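 Flow cytometry measured binding of a six-helix-bundle-specific polyclonal antibody, detected with PE-labelled secondary at 4 °C for 45 min, on H9/HIV-1 RF chronically infected cells. Compound was given 30 min at 37 °C before 1 μg/mL soluble CD4 induction for 1 h. Inhibition appears as reduced fluorescence.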

HIV-1, NL4-3 strain = assay: Virus infection assay (virus entry and single-cycle infection); type: cell-based; details: Human immunodeficiency virus 1, NL43, TZM-b1, read-out: Nl4
How it was run: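 Single-cycle entry/infection read-out: β-galactosidase chemiluminescence measured one day after infection. Compounds were present during a 4 h, 37 °C exposure of TZM-b1 reporter cells to NL4-3 virus at MOI 0.01 plus DEAE-dextran (80 μg/mL final), followed by addition of complete medium.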

SMILES	IC50 [1] [nM]	IC50 (HIV-1, NL4-3 strain) [nM]
COc1ccc(-c2nc3c(C(=O)N4CCN(C(CO)c5cccc(F)c5)C[C@H]4C)cnn3c(C(F)(F)F)c2C)cc1 (stereo partly drawn) [methanone, [(2R)-4-[1-(3-fluorophenyl)-2-hydroxyethyl]-2-methyl-1-piperazinyl][5-(4-methoxyphenyl)-6-methyl-7-(trifluoromethyl)pyrazolo[1,5-α]pyrimidin-3-yl]-]	< 1000	< 1000
COc1ccc(-c2nc3c(C(=O)N4CCN(C(CO)c5ccoc5)C[C@H]4C)cnn3c(C(F)(F)F)c2C)cc1 (stereo partly drawn) [methanone, [(2R)-4-[1-(3-furanyl)-2-hydroxyethyl]-2-methyl-1-piperazinyl][5-(4-methoxyphenyl)-6-methyl-7-(trifluoromethyl)pyrazolo[1,5-α]pyrimidin-3-yl]-]	< 1000	< 1000
COc1ccc(-c2nc3c(C(=O)N4CCN(C(CO)c5ccc(F)cc5OC)C[C@H]4C)cnn3c(C(F)(F)F)c2C)cc1 (stereo partly drawn) [methanone, [(2R)-4-[1-(4-fluoro-2-methoxyphenyl)-2-hydroxyethyl]-2-methyl-1-piperazinyl][5-(4-methoxyphenyl)-6-methyl-7-(trifluoromethyl)pyrazolo[1,5-α]pyrimidin-3-yl]-]	< 1000	< 1000
COc1ccc(-c2nc3c(C(=O)N4CCN(C(CO)c5ccc(F)cc5)C[C@H]4C)cnn3c(C(F)(F)F)c2C)cc1 (stereo partly drawn) [methanone, [(2R)-4-[1-(4-fluorophenyl)-2-hydroxyethyl]-2-methyl-1-piperazinyl][5-(4-methoxyphenyl)-6-methyl-7-(trifluoromethyl)pyrazolo[1,5-α]pyrimidin-3-yl]-]	< 1000	< 1000
COc1ccc(-c2nc3c(C(=O)N4CCN(C(CO)c5ccc(Cl)s5)C[C@H]4C)cnn3c(C(F)(F)F)c2C)cc1 (stereo partly drawn) [methanone, [(2R)-4-[1-(5-chloro-2-thienyl)-2-hydroxyethyl]-2-methyl-1-piperazinyl][5-(4-methoxyphenyl)-6-methyl-7-(trifluoromethyl)pyrazolo[1,5-α]pyrimidin-3-yl]-]	< 1000	< 1000
COc1ccc(-c2nc3c(C(=O)N4CCN(C(CO)c5cc(F)ccc5OC)C[C@H]4C)cnn3c(C(F)(F)F)c2C)cc1 (stereo partly drawn) [methanone, [(2R)-4-[1-(5-fluoro-2-methoxyphenyl)-2-hydroxyethyl]-2-methyl-1-piperazinyl][5-(4-methoxyphenyl)-6-methyl-7-(trifluoromethyl)pyrazolo[1,5-α]pyrimidin-3-yl]-]	< 1000	< 1000
COc1ccc(-c2nc3c(C(=O)N4CCN(C(CO)c5ccc(Br)nc5)C[C@H]4C)cnn3c(C(F)(F)F)c2C)cc1 (stereo partly drawn) [methanone, [(2R)-4-[1-(6-bromo-3-pyridinyl)-2-hydroxyethyl]-2-methyl-1-piperazinyl][5-(4-methoxyphenyl)-6-methyl-7-(trifluoromethyl)pyrazolo[1,5-α]pyrimidin-3-yl]-]	< 1000	< 1000
CCOc1ccc(C(CO)N2CCN(C(=O)c3cnn4c(C(F)(F)F)c(C)c(-c5ccc(OC)cc5)nc34)[C@H](C)C2)cn1 (stereo partly drawn) [methanone, [(2R)-4-[1-(6-ethoxy-3-pyridinyl)-2-hydroxyethyl]-2-methyl-1-piperazinyl][5-(4-methoxyphenyl)-6-methyl-7-(trifluoromethyl)pyrazolo[1,5-α]pyrimidin-3-yl]-]	< 1000	< 1000
COc1ccc(-c2nc3c(C(=O)N4CCN(C(CO)c5cccc(CN)c5)C[C@H]4C)cnn3c(C(F)(F)F)c2C)cc1 (stereo partly drawn) [methanone, [(2R)-4-[1-[3-(aminomethyl)phenyl]-2-hydroxyethyl]-2-methyl-1-piperazinyl][5-(4-methoxyphenyl)-6-methyl-7-(trifluoromethyl)pyrazolo[1,5-α]pyrimidin-3-yl]-]	> 10100	> 10100
COc1ccc(-c2nc3c(C(=O)N4CCN(C(CO)c5cccc(N(C)C)c5)C[C@H]4C)cnn3c(C(F)(F)F)c2C)cc1 (stereo partly drawn) [methanone, [(2R)-4-[1-[3-(dimethylamino)phenyl]-2-hydroxyethyl]-2-methyl-1-piperazinyl][5-(4-methoxyphenyl)-6-methyl-7-(trifluoromethyl)pyrazolo[1,5-α]pyrimidin-3-yl]-]	< 1000	< 1000
COc1ccc(-c2nc3c(C(=O)N4CCN(C(CN(C)C)c5ccccc5)C[C@H]4C)cnn3c(C(F)(F)F)c2C)cc1 (stereo partly drawn) [methanone, [(2R)-4-[2-(dimethylamino)-1-phenylethyl]-2-methyl-1-piperazinyl][5-(4-methoxyphenyl)-6-methyl-7-(trifluoromethyl)pyrazolo[1,5-α]pyrimidin-3-yl]-]	< 1000	< 1000
COc1ccc(-c2nc3c(C(=O)N4CCN(C(CO)c5cn[nH]c5)C[C@H]4C)cnn3c(C(F)(F)F)c2C)cc1 (stereo partly drawn) [methanone, [(2R)-4-[2-hydroxy-1-(1H-pyrazol-4-yl)ethyl]-2-methyl-1-piperazinyl][5-(4-methoxyphenyl)-6-methyl-7-(trifluoromethyl)pyrazolo[1,5-α]pyrimidin-3-yl]-]	1100 to 10000	1100 to 10000
COc1ccc(-c2nc3c(C(=O)N4CCN(C(CO)c5cc(F)cc(F)c5F)C[C@H]4C)cnn3c(C(F)(F)F)c2C)cc1 (stereo partly drawn) [methanone, [(2R)-4-[2-hydroxy-1-(2,3,5-trifluorophenyl)ethyl]-2-methyl-1-piperazinyl][5-(4-methoxyphenyl)-6-methyl-7-(trifluoromethyl)pyrazolo[1,5-α]pyrimidin-3-yl]-]	< 1000	< 1000
COc1ccc(-c2nc3c(C(=O)N4CCN(C(CO)c5c(F)ccc(F)c5F)C[C@H]4C)cnn3c(C(F)(F)F)c2C)cc1 (stereo partly drawn) [methanone, [(2R)-4-[2-hydroxy-1-(2,3,6-trifluorophenyl)ethyl]-2-methyl-1-piperazinyl][5-(4-methoxyphenyl)-6-methyl-7-(trifluoromethyl)pyrazolo[1,5-α]pyrimidin-3-yl]-]	< 1000	< 1000
COc1ccc(-c2nc3c(C(=O)N4CCN(C(CO)c5cccnc5OC)C[C@H]4C)cnn3c(C(F)(F)F)c2C)cc1 (stereo partly drawn) [methanone, [(2R)-4-[2-hydroxy-1-(2-methoxy-3-pyridinyl)ethyl]-2-methyl-1-piperazinyl][5-(4-methoxyphenyl)-6-methyl-7-(trifluoromethyl)pyrazolo[1,5-α]pyrimidin-3-yl]-]	< 1000	< 1000
COc1ccc(-c2nc3c(C(=O)N4CCN(C(CO)c5cnc(OC)nc5)C[C@H]4C)cnn3c(C(F)(F)F)c2C)cc1 (stereo partly drawn) [methanone, [(2R)-4-[2-hydroxy-1-(2-methoxy-5-pyrimidinyl)ethyl]-2-methyl-1-piperazinyl][5-(4-methoxyphenyl)-6-methyl-7-(trifluoromethyl)pyrazolo[1,5-α]pyrimidin-3-yl]-]	< 1000	< 1000
COc1ccc(-c2nc3c(C(=O)N4CCN(C(CO)c5ccccc5OC)C[C@H]4C)cnn3c(C(F)(F)F)c2C)cc1 (stereo partly drawn) [methanone, [(2R)-4-[2-hydroxy-1-(2-methoxyphenyl)ethyl]-2-methyl-1-piperazinyl][5-(4-methoxyphenyl)-6-methyl-7-(trifluoromethyl)pyrazolo[1,5-α]pyrimidin-3-yl]-]	< 1000	< 1000
COc1ccc(-c2nc3c(C(=O)N4CCN(C(CO)c5cccs5)C[C@H]4C)cnn3c(C(F)(F)F)c2C)cc1 (stereo partly drawn) [methanone, [(2R)-4-[2-hydroxy-1-(2-thienyl)ethyl]-2-methyl-1-piperazinyl][5-(4-methoxyphenyl)-6-methyl-7-(trifluoromethyl)pyrazolo[1,5-α]pyrimidin-3-yl]-]	< 1000	< 1000
COc1ccc(-c2nc3c(C(=O)N4CCN(C(CO)c5cccc(OC)c5)C[C@H]4C)cnn3c(C(F)(F)F)c2C)cc1 (stereo partly drawn) [methanone, [(2R)-4-[2-hydroxy-1-(3-methoxyphenyl)ethyl]-2-methyl-1-piperazinyl][5-(4-methoxyphenyl)-6-methyl-7-(trifluoromethyl)pyrazolo[1,5-α]pyrimidin-3-yl]-]	< 1000	< 1000
COc1ccc(-c2nc3c(C(=O)N4CCN(C(CO)c5cccnc5)C[C@H]4C)cnn3c(C(F)(F)F)c2C)cc1 (stereo partly drawn) [methanone, [(2R)-4-[2-hydroxy-1-(3-pyridinyl)ethyl]-2-methyl-1-piperazinyl][5-(4-methoxyphenyl)-6-methyl-7-(trifluoromethyl)pyrazolo[1,5-α]pyrimidin-3-yl]-]	< 1000	> 10100
COc1ccc(-c2nc3c(C(=O)N4CCN(C(CO)c5ccsc5)C[C@H]4C)cnn3c(C(F)(F)F)c2C)cc1 (stereo partly drawn) [methanone, [(2R)-4-[2-hydroxy-1-(3-thienyl)ethyl]-2-methyl-1-piperazinyl][5-(4-methoxyphenyl)-6-methyl-7-(trifluoromethyl)pyrazolo[1,5-α]pyrimidin-3-yl]-]	< 1000	< 1000
COc1ccc(-c2nc3c(C(=O)N4CCN(C(CO)c5cnccc5OC)C[C@H]4C)cnn3c(C(F)(F)F)c2C)cc1 (stereo partly drawn) [methanone, [(2R)-4-[2-hydroxy-1-(4-methoxy-3-pyridinyl)ethyl]-2-methyl-1-piperazinyl][5-(4-methoxyphenyl)-6-methyl-7-(trifluoromethyl)pyrazolo[1,5-α]pyrimidin-3-yl]-]	< 1000	< 1000
COc1ccc(-c2nc3c(C(=O)N4CCN(C(CO)c5ccc(OC)cc5)C[C@H]4C)cnn3c(C(F)(F)F)c2C)cc1 (stereo partly drawn) [methanone, [(2R)-4-[2-hydroxy-1-(4-methoxyphenyl)ethyl]-2-methyl-1-piperazinyl][5-(4-methoxyphenyl)-6-methyl-7-(trifluoromethyl)pyrazolo[1,5-α]pyrimidin-3-yl]-]	< 1000	< 1000
